# Data: PubChem BioAssay (NCI)
# Several values for one entry are separate records, joined by “and”; a condition that tells them apart may be missing. Identical values can stand only once.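 Five compound concentrations were applied to cells in 96-well plates for 48 hours; endpoints were derived by simple linear interpolation of the resulting dose-response curve. The concentration for 50% growth inhibition is given as GI50. TGI is the concentration that stops growth completely.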 Where a SMILES comes first, the peptide text is derived from it. [ ]: non-standard residue; d: D form. The star is where a group is joined. Phe(4-NO2) = N[CH](Cc1ccc([N+](=O)[O-])cc1)C(=O)O; Boc = CC(C)(C)OC(=O)*
# Legend:
# Experiment in all cases: NCI tumour cell line growth inhibition, 48 h
# HOP-62 NSCLC = test system: HOP-62 NSCLC
# ACHN renal = test system: ACHN renal
# BT-549 breast = test system: BT-549 breast
# MOLT-4 leukemia = test system: MOLT-4 leukemia
# SK-OV-3 ovarian = test system: SK-OV-3 ovarian
# LOX IMVI melanoma = test system: LOX IMVI melanoma
# IGROV1 ovarian = test system: IGROV1 ovarian
# HCT-116 colon = test system: HCT-116 colon
# A498 renal = test system: A498 renal
# NCI-H226 lung = test system: NCI-H226 lung
Compound,TGI (HOP-62 NSCLC),TGI (ACHN renal),TGI (BT-549 breast),TGI (MOLT-4 leukemia),TGI (SK-OV-3 ovarian),TGI (LOX IMVI melanoma),TGI (IGROV1 ovarian),TGI (HCT-116 colon),TGI (A498 renal),TGI (NCI-H226 lung),GI50 (HOP-62 NSCLC),GI50 (ACHN renal),GI50 (A498 renal),GI50 (MOLT-4 leukemia),GI50 (SK-OV-3 ovarian),GI50 (IGROV1 ovarian),GI50 (HCT-116 colon),GI50 (NCI-H226 lung)
C/C(=C\Cc1ccc(F)cc1)CCCCCC/C(C)=C/Cc1ccc(F)cc1,37.2 µM,24.8 µM,79 µM,47.6 µM,68.6 µM,19.9 µM,26.7 µM,33 µM,–,–,–,–,–,–,–,–,–,–
CC(=O)OCC1OC(SC2=NC(=O)CS2)C(OC(C)=O)C(OC(C)=O)C1OC(C)=O (centres undefined),> 100 µM,> 100 µM,> 100 µM,> 100 µM,> 100 µM,> 100 µM,> 100 µM,–,> 100 µM,> 100 µM,–,–,–,–,–,–,–,–
Cc1ccc(-n2nncc2[Si](C)(C)C)s1,–,> 100 µM,> 100 µM,–,> 100 µM,> 100 µM,–,> 100 µM,> 100 µM,> 100 µM,–,–,–,–,–,–,–,–
CCC1=C(C[C@H]2NCCc3cc(OC)c(OC)cc32)C[C@H]2c3cc(OC)c(OC)cc3CCN2C1,0.106 µM,0.28 µM,–,> 100 µM,0.73 µM,–,0.444 µM,0.0745 µM,0.0497 µM,–,–,–,–,–,–,–,–,–
COc1cc2nc(N3CCC[C@H](NC4=CC(=O)c5ccccc5C4=O)C3)nc(N)c2cc1OC,4.48 µM,3.47 µM,–,5.9 µM,4.22 µM,–,4.27 µM,4.81 µM,34 µM,55.6 µM,2.26 µM,1.84 µM,11.8 µM,2.37 µM,2.22 µM,2.07 µM,1.64 µM,16.6 µM
Cc1ccc(N2C(=O)C3CSCN3C2=O)cc1 (centres undefined),> 100 µM,–,–,> 100 µM,> 100 µM,> 100 µM,> 100 µM,> 100 µM and 11.7 µM,> 100 µM,> 100 µM,–,–,–,–,–,–,> 100 µM,–
COC(=O)c1onc(C2OC(C)(C)OC2C(O)COC(c2ccccc2)(c2ccccc2)c2ccccc2)c1C(=O)OC (centres undefined),> 100 µM,> 100 µM,–,> 100 µM,–,–,–,> 100 µM,> 100 µM,> 100 µM,–,–,–,–,–,–,–,–
COC(=O)c1c2c(cc3c1CC1(Cc4cc5c(c(C)c4C1)CCC5)C3)CCC2 (centres undefined),> 100 µM,> 100 µM,–,> 100 µM,> 100 µM,> 100 µM,> 100 µM,> 100 µM,> 100 µM,–,–,–,–,–,–,–,–,–
Cc1cc(S(=O)(=O)Nc2nc3cscc3c(=O)n2N)c(S)cc1Cl,> 100 µM,> 100 µM,> 100 µM,> 100 µM,> 100 µM,> 100 µM,> 100 µM,> 100 µM,–,48.5 µM,–,–,–,–,–,–,–,–
COc1c(C)c(C/C=C(\C)CCCC(C)CCCC(C)CCCC(C)C)c(OC)c2ccccc12 (centres undefined),–,> 100 µM,> 100 µM,> 100 µM,> 100 µM,> 100 µM,> 100 µM,> 100 µM,–,–,–,–,–,–,–,–,–,–
CC(C)(C)OC(=O)C(C#N)C(=O)c1ccc(C(=O)O)[nH]1 (centres undefined),–,> 100 µM,> 100 µM,> 100 µM,> 100 µM,> 100 µM,–,> 100 µM,77.2 µM,> 100 µM,–,–,–,–,–,–,–,–
c1ccc2c[n+](CCCC[n+]3ccc4ccccc4c3)ccc2c1,> 100 µM,> 100 µM,> 100 µM,–,> 100 µM,> 100 µM,> 100 µM,> 100 µM,> 100 µM,> 100 µM,–,–,–,–,–,–,–,–
CCOC(=O)CCC(NC(=O)C(Cc1ccc([N+](=O)[O-])cc1)NC(=O)OC(C)(C)C)C(=O)NC(CCC(=O)OCC)C(=O)OCC (centres undefined) (Boc-[Phe(4-NO2)]-Glu(OEt)-Glu(OEt)-OEt; configuration not given here),67.4 µM,31.1 µM,45.1 µM,6.62 µM,–,–,38.3 µM,38.5 µM,36.4 µM,35.9 µM,–,–,–,–,–,–,–,–
CCOC(=O)CCc1cn2cc(Br)nc(OC)c2n1,> 100 µM,–,> 100 µM,> 100 µM,> 100 µM,> 100 µM,> 100 µM,> 100 µM,–,> 100 µM,–,–,–,–,–,–,–,–
O=c1c2ccccc2nc(N/N=C/c2ccc([N+](=O)[O-])cc2)n1-c1ccccc1,67.5 µM,62.9 µM,46 µM,> 100 µM,64.8 µM,> 100 µM,> 100 µM,> 100 µM,–,> 100 µM,–,–,–,–,–,–,–,–
Oc1ccc(Cl)cc1-c1cc(-c2ccccc2)nc(=S)[nH]1,46.9 µM,> 100 µM,–,> 100 µM,> 100 µM,> 100 µM,> 100 µM,> 100 µM,> 100 µM,> 100 µM,–,–,–,–,–,–,–,–
Cc1cc2nc3ccccc3n2c2ccccc12,> 10 µM,> 10 µM,–,> 10 µM,> 10 µM,> 10 µM,> 10 µM,> 10 µM,–,> 10 µM,–,–,–,–,–,–,–,–
Cc1c(OCc2cccc3ccccc23)ccc2c(=O)cc(SCCN3CCOCC3)oc12,> 100 µM,> 100 µM,> 100 µM,> 100 µM,–,> 100 µM,> 100 µM,> 100 µM,> 100 µM,> 100 µM,–,–,–,–,–,–,–,–
O=C(O)CSC1=NNC2(C(=O)N1)c1ccccc1-c1ccccc12,> 10 µM,> 10 µM,> 10 µM,> 10 µM,> 10 µM,> 10 µM,> 10 µM,> 10 µM,–,> 10 µM,–,–,–,–,–,–,–,–
O=C1CCCCC/C1=C\c1cccc(F)c1,> 100 µM,> 100 µM,> 100 µM,> 100 µM,> 100 µM,–,> 100 µM,> 100 µM,> 100 µM,–,–,–,–,–,–,–,–,–
C=C(CN(CC)CC)C1(c2ccccc2)CC2(CCCC2)C(=O)O1 (centres undefined),> 100 µM,> 100 µM,–,> 100 µM,> 100 µM,> 100 µM,> 100 µM,> 100 µM,> 100 µM,> 100 µM,–,–,–,–,–,–,–,–
COc1ccc(OC)c2c(C)ccnc12,> 60.9 µM,> 100 µM,> 100 µM,–,> 100 µM,46.5 µM,> 66.4 µM,> 100 µM,> 100 µM,> 93.4 µM,–,–,–,–,–,–,–,–
